# Laboratory results reported in patent publication US11192865B2, “Benzosulfonyl compounds” (Vivace Therapeutics, Inc., priority 2017, dated 2021).
# Tested on: 8XTBD luciferase reporter
# Assay: YAP Reporter Assay
# Assay type: cell-based
# Conditions: Homo sapiens, HEK-293T; HEK293T cells stably transfected with 8XTBD luciferase reporter and pRLTK; 24-hr incubation; starting from 3 μM, 1:3 dilution, 10 points; read-out: Firefly Luciferase IC50
# Protocol: HEK293T cells stably transfected with 8XTBD luciferase reporter and pRLTK in 384-well plates were treated with the test compounds, starting from 3 μM (final concentration in assay plate), 1:3 dilution, and 10 points in quadruplicates. Post 24-hr incubation with compounds at 37° C. and 5% CO2, cells were lysed and 8XTBD-driven firefly luciferase and control TK-driven renilla luciferase activities were measured using Promega Dual-Luciferase Reporter Assay System.
# Reagents: The reagents used for this study are: DMEM: Invitrogen #11960077, Dual-Glo Luciferase Assay System: Promega-E2980, Puromycin Dihydrochloride: Invitrogen-A1113803, 384-well plate: PerkinElmer-6007480, L-GLUTAMINE: Invitrogen-25030164, Hygromycin B: Invitrogen-10687010, and Penicillin-Streptomycin: Merk-TMS-AB2-C
# Media: The media used for this assay were: Culture Medium: DMEM+1 ug/mL puromycin+200 ug/mL hygromycin (with 10% FBS+1 mM L-glutamine); and Assay Medium: DMEM (with 10% FBS+1 mM L-glutamine+1×P/S).
# Cell Plating: The appropriate media was warmed at 37° C. by water bath: Culture Medium, Assay Medium, 1* D-PBS, 0.05% trypsin-EDTA. The cells were trypsinized after removing all media, then washed with 1* sterile D-PBS and then with 2 ml 0.05% trypsin-EDTA. The cells were then incubated at RT for one minute. Then 10 ml/75 cm2 flask Assay Medium was added to each flask. Using a 10 ml pipette, the cells were then gently resuspended in the media, until the clumps completely disappeared. The cells were then transferred into 50 ml centrifuge tubes and were centrifuged at 800 rpm for 5 mins. The medium was removed and the cells were resuspended with Assay Medium. An aliquot of cells was used to count the cell density (cells/ml). The cell suspension was then diluted with Assay Medium to a concentration of 6×10^4 cells/ml. 50 ul cells suspension was then plated to 384-well plate (PerkinElmer-6007480), 3×10^3 cells/well and the cells were incubated in an incubator at 37° C., 5% CO2.
# Compound Treatment: In the afternoon (incubation of the plate with 3-4 hrs), the test compounds were added by Echo, starting from 3 uM (final concentration in the assay plate), 1:3 dilution, 10 points, quadruplicates. The plate was placed at 37° C., 5% CO2 incubator for 24 hrs.
# Detection: The Dual-Glo Luciferase Reagent was prepared by transferring the contents of one bottle of Dual-Glo Luciferase Buffer to one bottle of Dual-Glo Luciferase Substrate to create the Dual-Glo Luciferase Reagent. Mixing was performed by inversion until the substrate was thoroughly dissolved. After mixing, the reagent was aliquoted into 15 ml tubes. In the afternoon (24 hrs post compound treatment), the DMEM+ medium in the 384 well plates were aspirated by Microplate Washer.
# Measuring firefly luciferase activity: 20 ul Dual-Glo Luciferase Reagent was added to the 384-well plates. The plates were protected from light to prevent interference with the assay. The plates were shaken for 1 min followed centrifuging plates at 1000 rpm for 30 seconds. After waiting at least 10 minutes, the firefly luminescence was measured by Envision.
# Measuring renilla luciferase activity: 20 ul Stop-Glo Reagent was added to the 384-well plates. The plates were shaken for 1 min and then centrifuged at 1000 rpm for 30 seconds. After waiting at least 10 minutes, the renilla luminescence was measured by Envision.
# Compound IC50 and maximum inhibition on the firefly luciferase and renilla luciferase activities were reported separately.
row,SMILES,IC50 [nM]
1,"CNS(=O)(=O)c1ccc(Nc2cccc(-c3ccccc3)c2)c(-c2nnn(C)n2)c1 [Compound 131, N-methyl-3-(2-methyltetrazol-5-yl)-4-(3-phenylanilino) benzenesulfonamide]",≤ 100
2,"CNS(=O)(=O)c1ccc(Nc2ccc(C(F)(F)F)cc2)c(-c2nnn(CCO)n2)c1 [Compound 116, 3-(2-(2-hydroxyethyl)-2H-tetrazol-5-yl)-N-methyl-4-((4-(trifluoromethyl)phenyl)amino)benzenesulfonamide]",≤ 100
3,"CNS(=O)(=O)c1ccc(NC2CCCCC2)c(-c2nc(C)no2)c1 [Compound 91, 4-(cyclohexylamino)-N-methyl-3-(3-methyl-1,2,4-oxadiazol-5-yl)benzenesulfonamide]",100 to 1000
4,"CNc1cccc(-c2cc(S(=O)(=O)NC)ccc2NC2CCCCC2)n1 [Compound 85, 4-(cyclohexylamino)-N-methyl-3-(6-(methylamino)pyridin-2-yl)benzenesulfonamide]",1000 to 3000
5,"CNS(=O)(=O)c1ccc(Nc2cccc(OC(F)(F)F)c2)c(-c2nnnn2C)c1 [Compound 100, N-methyl-3-(1-methyl-1H-tetrazol-5-yl)-4-((3-(trifluoromethoxy)phenyl)amino)benzenesulfonamide]",> 3000
6,"CNS(=O)(=O)c1ccc(NC2CCCCC2)c(-c2nnn(C3CCN(C(C)=O)C3)n2)c1 (centres unmarked) [Compound 42, 3-(2-(1-acetylpyrrolidin-3-yl)-2H-tetrazol-5-yl)-4-(cyclohexylamino)-N-methylbenzenesulfonamide]",100 to 1000
7,"CNS(=O)(=O)c1ccc(NC2CCCCC2)c(-c2n[nH]c(C)n2)c1 [Compound 66, 4-(cyclohexylamino)-N-methyl-3-(5-methyl-1H-1,2,4-triazol-3-yl)benzenesulfonamide]",100 to 1000
8,"CNS(=O)(=O)c1ccc(Nc2ccccc2C(F)(F)F)c(-c2nnnn2C)c1 [Compound 98, N-methyl-3-(1-methyl-1H-tetrazol-5-yl)-4-((2-(trifluoromethyl)phenyl)amino)benzenesulfonamide]",> 3000
9,"CNS(=O)(=O)c1ccc(NC2CCCCC2)c(-c2nnn(C3CCNCC3)n2)c1 [Compound 30, 4-(cyclohexylamino)-N-methyl-3-(2-(piperidin-4-yl)-2H-tetrazol-5-yl)benzenesulfonamide]",> 3000
10,"CCCCn1nnc(-c2cc(S(=O)(=O)NC)ccc2NC2CCCCC2)n1 [Compound 21, 3-(2-butyltetrazol-5-yl)-4-(cyclohexylamino)-N-methyl-benzenesulfonamide]",≤ 100
11,"CNS(=O)(=O)c1ccc(Nc2cc(F)cc(F)c2)c(-c2nnn(C)n2)c1 [Compound 108, 4-((3,5-difluorophenyl)amino)-N-methyl-3-(2-methyl-2H-tetrazol-5-yl)benzenesulfonamide]",100 to 1000
12,"CNS(=O)(=O)c1ccc(NC2CCCCC2)c(-c2nnn(C3CNC3)n2)c1 [Compound 54, 3-(2-(azetidin-3-yl)-2H-tetrazol-5-yl)-4-(cyclohexylamino)-N-methylbenzenesulfonamide]",> 3000
13,"CNS(=O)(=O)c1ccc(NC2CCCCC2)c(-c2nnn(Cc3ccc(F)cc3)n2)c1 [Compound 41, 4-(cyclohexylamino)-3-(2-(4-fluorobenzyl)-2H-tetrazol-5-yl)-N-methylbenzenesulfonamide]",100 to 1000
14,"CNS(=O)(=O)c1ccc(NC2CCCCC2)c(-c2nnn(C3CC3)n2)c1 [Compound 71, 4-(cyclohexylamino)-3-(2-cyclopropyl-2H-tetrazol-5-yl)-N-methylbenzene sulfonamide]",> 3000
15,"CNS(=O)(=O)c1ccc(Nc2cc(Cl)cc(Cl)c2)c(-c2cn(C)cn2)c1 [Compound 142, 4-(3,5-dichloroanilino)-N-methyl-3-(1-methylimidazol-4-yl)benzenesulfonamide]",≤ 100
16,"CNS(=O)(=O)c1ccc(NC2CCCCC2)c(-n2ccnn2)c1 [Compound 89, 4-(cyclohexylamino)-N-methyl-3-(1H-1,2,3-triazol-1-yl)benzenesulfonamide]",> 3000

row,SMILES,IC50 [nM]
1,"CNS(=O)(=O)c1ccc(NC2CCCCC2)c(-c2nnn(C3CCN(C(C)C)CC3)n2)c1 [Compound 46, 4-(cyclohexylamino)-3-(2-(1-isopropylpiperidin-4-yl)-2H-tetrazol-5-yl)-N-methylbenzenesulfonamide]",> 3000
2,"CNS(=O)(=O)c1ccc(NC2CCCCC2)c(-c2cccc(N(C)C)n2)c1 [Compound 83, 4-(cyclohexylamino)-3-(6-(dimethylamino)pyridin-2-yl)-N-methylbenzenesulfonamide]",> 3000
3,"Cn1nnc(-c2cc(S(C)(=O)=O)ccc2NC2CCCCC2)n1 [Compound 5, N-cyclohexyl-2-(2-methyl-2H-tetrazol-5-yl)-4-(methylsulfonyl)aniline]",100 to 1000
4,"CNS(=O)(=O)c1ccc(Nc2c(F)cccc2F)c(-c2cn(C)cn2)c1 [Compound 149, 4-((2,6-Difluorophenyl)amino)-N-methyl-3-(1-methyl-1H-imidazol-4-yl)benzenesulfonamide]",≤ 100
5,"CNS(=O)(=O)c1ccc(NC2CCCCC2)c(-c2nnn(C)n2)c1 [Compound 22, 4-(cyclohexylamino)-N-methyl-3-(2-methyl-2H-tetrazol-5-yl)benzenesulfonamide]",≤ 100
6,"CNS(=O)(=O)c1ccc(NC2CCCCC2)c(-c2cn(C3CC3)cn2)c1 [Compound 111, 4-(cyclohexylamino)-3-(1-cyclopropyl-1H-imidazol-4-yl)-N-methylbenzenesulfonamide]",≤ 100
7,"CNS(=O)(=O)c1ccc(NC2CCCC(F)(F)C2)c(-c2nnn(C)n2)c1 (centres unmarked) [Compound 73, 4-((3,3-difluorocyclohexyl)amino)-N-methyl-3-(2-methyl-2H-tetrazol-5-yl)benzenesulfonamide]",≤ 100
8,"Cn1cc(-c2cc(S(C)(=O)=O)ccc2NC2CCCCC2)cn1 [Compound 7, N-cyclohexyl-2-(1-methyl-1H-pyrazol-4-yl)-4-(methylsulfonyl)aniline]",> 3000
9,"CNS(=O)(=O)c1ccc(Nc2ccc(C(F)(F)F)cc2)c(-c2nnn(C)n2)c1 [Compound 95, N-methyl-3-(2-methyl-2H-tetrazol-5-yl)-4-((4-(trifluoromethyl)phenyl)amino)benzenesulfonamide]",≤ 100
10,"CNS(=O)(=O)c1ccc(NC2CCCCC2)c(-c2cc(N)ccn2)c1 [Compound 84, 3-(4-aminopyridin-2-yl)-4-(cyclohexylamino)-N-methylbenzenesulfonamide]",100 to 1000
11,"CNS(=O)(=O)c1ccc(NC2CCCCC2)c(-c2nnn(-c3ccccc3)n2)c1 [Compound 34, 4-(cyclohexylamino)-N-methyl-3-(2-phenyl-2H-tetrazol-5-yl)benzenesulfonamide]",> 3000
12,"CNS(=O)(=O)c1ccc(Nc2ccc(SC(F)(F)F)cc2)c(-c2cn(C)cn2)c1 [Compound 144, N-methyl-3-(1-methylimidazol-4-yl)-4-[4-(trifluoromethylsulfanyl)anilino] benzenesulfonamide]",≤ 100
13,"CNS(=O)(=O)c1ccc(Nc2ccc(Cl)c(Cl)c2)c(-c2cn(C)cn2)c1 [Compound 140, 4-(3,4-dichloroanilino)-N-methyl-3-(1-methylimidazol-4-yl)benzenesulfonamide]",≤ 100
14,"Cc1nc(-c2cc(S(C)(=O)=O)ccc2NC2CCCCC2)no1 [Compound 3, N-cyclohexyl-2-(5-methyl-1,2,4-oxadiazol-3-yl)-4-(methylsulfonyl)aniline]",≤ 100
15,"CNS(=O)(=O)c1ccc(Nc2cccc(C(F)(F)F)c2)c(-c2nnn(C)n2)c1 [Compound 92, N-methyl-3-(2-methyl-2H-tetrazol-5-yl)-4-((3-(trifluoromethyl)phenyl)amino)benzenesulfonamide]",≤ 100
16,"CS(=O)(=O)c1ccc(NC2CCCCC2)c(-n2ccnn2)c1 [Compound 9, N-cyclohexyl-4-(methylsulfonyl)-2-(1H-1,2,3-triazol-1-yl)aniline]",> 3000
